# Test results published in patent publication US20100273696A1, “Composition and method for the prevention and removal of unwanted paint on a surface” (priority 2009, published 2010).
# Key:
# [1] = Solubility in water of possible ingredients; assay type: physicochemical
# [2] = Toxicity (hazard class) of possible ingredients; conditions: hazard symbol or 'none'
Compound,Solubility in H2O ([1]; result in words),Toxicity [2],Solubility in H2O ([1]; given as percent)
COCCOCCOCCOC [triethylene glycol dimethyl ether],complete,none,
CCCCOCCOCCO [diethylene glycol monobutyl ether],,,10%
CCCOCCOCCO [diethylene glycol monopropyl ether],complete,none,
CCCCOC(C)COC(C)COC(C)CO (centres unmarked) [tripropylene glycol monobutyl ether],,none,
CCCCOCCOCCOCCCC [diethylene glycol dibutyl ether],,,0.3%
PEG-8 Oleate,,none,
CCCOCCOCCOCCC [diethylene glycol dipropyl ether],complete,none,
COCCOCCOCCO [triethylene glycol monomethyl ether],,none,
CCOCCOCCO [diethylene glycol monoethyl ether],complete,none,
COCCOCCOCCOCCOC [tetraethylene glycol dimethyl ether],complete,none,
lauryl ethercarboxylic acid (10 EO),complete,none,
CC1COC(=O)O1 (centres unmarked) [propylene carbonate],,,24%
CN1CCCC1=O [N-methyl-2-pyrrolidinone],complete,,
CCCCOCCOCCOC(C)=O [[2-(2-butoxyethoxy)-ethyl]-acetate],,none,6.5%
CCOC(=O)CC(CC(C)=O)C(=O)OCC (centres unmarked) [diethyl acetonyl succinate],,none,
COC(C)COC(C)COC(C)CO (centres unmarked) [tripropylene glycol monomethyl ether],complete,none,
CCOC(C)COC(C)CO (centres unmarked) [dipropylene glycol monoethyl ether],complete,none,
COCCOCCO [diethylene glycol monomethyl ether],complete,,
C[S+](C)[O-] [dimethyl sulfoxide],complete,none,
COCCOCCOCCOCCO [tetraethylene glycol monomethyl ether],complete,none,
COCC(C)OCC(C)OC (centres unmarked) [dipropylene glycol dimethyl ether],complete,none,
COCCOCCOC [diethylene glycol dimethyl ether],complete,,
oleyl ethercarboxylic acid (9 EO),complete,none,
CCOCCOCCOCC [diethylene glycol diethyl ether],complete,none,
COC(=O)CCC(=O)OC [dimethyl succinate],,,7.5%
O=C1CCCO1 [γ-butyrolactone],complete,,
CCCOC(C)COC(C)CO (centres unmarked) [dipropylene glycol monopropyl ether],complete,none,
octyl ethercarboxylic acid (8 EO),complete,none,
O=C1OCCO1 [ethylene carbonate],,none,
COC(C)COC(C)CO (centres unmarked) [dipropylene glycol monomethyl ether],complete,none,
